Here are results for one compound from patent US4343790A, “Controlled release acrylic polymer coated granular pesticidal compositions with attendant reduced dermal toxicity” (priority 1980, dated 1982).

The data set is described as follows: dermal toxicity of granular formulations (dermal LD50), male albino rabbits. As to conditions: rabbit, in vivo, topical or ocular, Table I, 24 h cuff, 14 days observation, O,O-diethyl S-{[(1,1-dimethylethyl)thio]methyl}phosphorodithioate. From the text: General method for the evaluation of dermal toxicity of the formulations of the present invention using male albino rabbits as the test animals
a. Five male albino rabbits weighing approximately 2.2 to 3.5 kilogram are selected for each dosage level. The hair is shaved from the entire trunk.
b. Saran tubing or "Vinylite" film VU1900, 30.5 cm (12") wide, 0.04 millimeter in thickness and long enough to fit around the rabbit.
c. One felt cloth bandage measuring approximately 22.9×45.7 cm (9"×18").
d. Four pieces of 3.8 cm (1.5") adhesive tape approximately 35.6 cm (14") long.
a. The granular material is placed in the center of the plastic film and is moistened with water.
b. The rabbits underside is moistened with water and the animals are placed belly down on the material.
c. The plastic is then brought up and around the animal and secured at each end with strips of adhesive tape. The felt cloth is then placed under the belly and brought up around the animal and secured to the body with the remaining two strips of adhesive tape.
Twenty-four hours after dosing, the "cuff" is removed and any remaining material is brushed away. If the test material cannot be removed, the animal is fitted with a fiber collar which prevents the animal from licking the treatment area. The animals are observed for 14 days, post dosing, noting signs of toxicity, skin irritation and mortality. […]

`CCOP(=S)(OCC)SCSC(C)(C)C` [O,O-diethyl S-{[(1,1-dimethylethyl)thio]methyl}phosphorodithioate] showed an LD50 at 336 h of 1 to 2 mg/kg.
